# Measured values reported in patent publication US5516790A, “Synthesis and application of alkyl-substituted dibenzofurans as antitumorigenic agents” (Texas A&M University System Technology Licensing Office, priority 1994, dated 1996).
# Tests used:
# female rat uterus = assay: Antiestrogenic effect on uterine wet weight, immature female Sprague-Dawley rats (Example 8); assay type: in vivo
# [1] = tested on: progesterone receptor (PR); assay: Uterine progesterone receptor levels, hydroxyapatite assay (Example 8); assay type: in vivo, female Sprague-Dawley rats; details: for ED40-60 for Inhibition, PRc / ED40-60 for Inhibition, PRn: cotreatment with 17β-estradiol
# Experimental: (§1) The animals were terminated by cervical dislocation. Livers were perfused with ice-cold TEDG buffer (10 mM Tris-HCl, 1.5 mM EDTA-4Na, 1 mM dithiothreitol, 10% glycerol (v/v), pH 7.4). Following perfusion in situ, livers were removed, weighed, and homogenized in ice-cold TEDG buffer. Uteri were also removed, weighed, and homogenized in ice-cold buffer. The homogenates were then centrifuged at 800×g ([…]) for 15 minutes and the nuclear pellets were stored at -80° C. The supernatants were further centrifuged at 180,000× g for 1.5 hours. The cytosolic supernatant was also stored at -80° C. Estrogen and progesterone receptor levels were determined within 7 days.
# (§2) Estrogen (ER) and progesterone (PR) receptor levels were determined by the hydroxyapatite assay as described by Clark et al. (J. Steroid Biochem. 16:323-328, 1982) and incorporated herein by reference. […] Following the incubations, samples were counted and specific binding was calculated by subtraction of nonspecific from total binding. Assuming one steroid molecule binds to one estrogen/progesterone receptor, the number of moles of receptor can be calculated given the specific activity of the radioligand. The data presented in Tables 1 through 6 are means ± SD using at least four animals per treatment group. Significant differences were determined by analysis of variance.
# estrogen receptor (ER) = assay: Uterine estrogen receptor levels, hydroxyapatite assay (Example 8); assay type: in vivo, female Sprague-Dawley rats; details: for ED40-60 for Inhibition, ERc / ED40-60 for Inhibition, ERn: cotreatment with 17β-estradiol
# Experimental: A second group of animals was similarly treated with corn oil, TCDD, MCDF, or TCDD plus MCDF, all administered in corn oil at 10 ml/kg and terminated 72 hours later.
# as §1, §2
# [2] = 150 μmol/kg + E-2 (2 × 10 μg/rat), run B
# [3] = compound alone, 150 μmol/kg (17β-estradiol: 2 × 10 μg/rat), run B
# [4] = Table 3: 50 μmol/kg + E-2 (2 × 10 μg/rat)
# [5] = Table 3: compound alone, 50 μmol/kg (17β-estradiol: 2 × 10 μg/rat)
# [6] = Table 2: 50 μmol/kg + E-2 (2 × 10 μg/rat)
# [7] = Table 2: compound alone, 50 μmol/kg (17β-estradiol: 2 × 10 μg/rat)
# [8] = 150 μmol/kg + E-2 (2 × 10 μg/rat), run A
# [9] = compound alone, 150 μmol/kg (17β-estradiol: 2 × 10 μg/rat), run A
# [10] = dose-response, 2 μmol/kg + 17β-estradiol (2 × 10 μg/rat)
# [11] = dose-response, 10 μmol/kg + 17β-estradiol (2 × 10 μg/rat)
# [12] = dose-response, 25 μmol/kg + 17β-estradiol (2 × 10 μg/rat)
# [13] = dose-response, 50 μmol/kg + 17β-estradiol (2 × 10 μg/rat)
compound,measurement,setting,value
"CC(C)(C)c1cc(Cl)cc2c1oc1cc(Cl)cc(Cl)c12 [6-t-Butyl-1,3,8-triCDF]",Uterine Wet Weight,female rat uterus; [2],0.247 ± 0.004 % body wt
same,Uterine Wet Weight,female rat uterus; [3],0.122 ± 0.013 % body wt
same,"Progesterone Receptor Levels, Cytosolic",[1]; [2],1844 ± 77 fmol/mg protein
same,"Progesterone Receptor Levels, Nuclear",[1]; [2],270 ± 19 fmol/mg protein
same,"Progesterone Receptor Levels, Cytosolic",[1]; [3],1109 ± 83 fmol/mg protein
same,"Progesterone Receptor Levels, Nuclear",[1]; [3],211 ± 15 fmol/mg protein
same,"Estrogen Receptor Levels, Cytosolic",estrogen receptor (ER); [2],108.6 ± 11.4 fmol/mg protein
same,"Estrogen Receptor Levels, Nuclear",estrogen receptor (ER); [2],41.7 ± 2.1 fmol/mg protein
same,"Estrogen Receptor Levels, Cytosolic",estrogen receptor (ER); [3],85.5 ± 4.3 fmol/mg protein
same,"Estrogen Receptor Levels, Nuclear",estrogen receptor (ER); [3],41.4 ± 2.1 fmol/mg protein
"Cc1cc2oc3cc(Cl)c(Cl)cc3c2cc1Cl [7-Methyl-2,3,-triCDF, 7-methyl-2,3,8-trichlorodibenzofuran]",Uterine Wet Weight,female rat uterus; [4],0.255 ± 0.017 % body wt
same,Uterine Wet Weight,female rat uterus; [5],0.102 ± 0.011 % body wt
same,"Progesterone Receptor Levels, Cytosolic",[1]; [4],924 ± 74 fmol/mg protein
same,"Progesterone Receptor Levels, Nuclear",[1]; [4],554 ± 39 fmol/mg protein
same,"Progesterone Receptor Levels, Cytosolic",[1]; [5],501 ± 35 fmol/mg protein
same,"Progesterone Receptor Levels, Nuclear",[1]; [5],364 ± 26 fmol/mg protein
same,"Estrogen Receptor Levels, Cytosolic",estrogen receptor (ER); [4],94.2 ± 4.71 fmol/mg protein
same,"Estrogen Receptor Levels, Nuclear",estrogen receptor (ER); [4],48.1 ± 2.4 fmol/mg protein
same,"Estrogen Receptor Levels, Cytosolic",estrogen receptor (ER); [5],72.9 ± 3.7 fmol/mg protein
same,"Estrogen Receptor Levels, Nuclear",estrogen receptor (ER); [5],35.2 ± 1.8 fmol/mg protein
"Cc1cc2c(cc1Cl)oc1c(Cl)cc(Cl)c(Cl)c12 [8-Methyl-1,2,4,7-tetraCDF, 8-methyl-1,2,4,7-tetrachlorodibenzofuran]",Uterine Wet Weight,female rat uterus; [6],0.213 ± 0.017 % body wt
same,Uterine Wet Weight,female rat uterus; [7],0.175 ± 0.007 % body wt
same,"Progesterone Receptor Levels, Cytosolic",[1]; [6],841 ± 73 fmol/mg protein
same,"Progesterone Receptor Levels, Nuclear",[1]; [6],399 ± 75 fmol/mg protein
same,"Progesterone Receptor Levels, Cytosolic",[1]; [7],685 ± 59 fmol/mg protein
same,"Progesterone Receptor Levels, Nuclear",[1]; [7],303 ± 46 fmol/mg protein
same,"Estrogen Receptor Levels, Cytosolic",estrogen receptor (ER); [6],118.4 ± 14.6 fmol/mg protein
same,"Estrogen Receptor Levels, Nuclear",estrogen receptor (ER); [6],66.5 ± 8.9 fmol/mg protein
same,"Estrogen Receptor Levels, Cytosolic",estrogen receptor (ER); [7],97.1 ± 10.1 fmol/mg protein
same,"Estrogen Receptor Levels, Nuclear",estrogen receptor (ER); [7],40.6 ± 5.3 fmol/mg protein
"Cc1cc(Cl)c2oc3cc(Cl)cc(Cl)c3c2c1 [8-Methyl-1,3,6-triCDF]",Uterine Wet Weight,female rat uterus; [8],0.212 ± 0.021 % body wt
same,Uterine Wet Weight,female rat uterus; [9],0.089 ± 0.008 % body wt
same,"Progesterone Receptor Levels, Cytosolic",[1]; [8],838 ± 66 fmol/mg protein
same,"Progesterone Receptor Levels, Nuclear",[1]; [8],203 ± 35 fmol/mg protein
same,"Progesterone Receptor Levels, Cytosolic",[1]; [9],686 ± 77 fmol/mg protein
same,"Progesterone Receptor Levels, Nuclear",[1]; [9],188 ± 29 fmol/mg protein
same,"Estrogen Receptor Levels, Cytosolic",estrogen receptor (ER); [8],65.9 ± 77.5 fmol/mg protein
same,"Estrogen Receptor Levels, Nuclear",estrogen receptor (ER); [8],20.8 ± 70.5 fmol/mg protein
same,"Estrogen Receptor Levels, Cytosolic",estrogen receptor (ER); [9],54.1 ± 6.2 fmol/mg protein
same,"Estrogen Receptor Levels, Nuclear",estrogen receptor (ER); [9],38.1 ± 5.8 fmol/mg protein
"Cc1cc2c(cc1Cl)oc1cc(Cl)cc(Cl)c12 [8-Methyl-1,3,7-triCDF, 8-Methyl-1,3,7-trichlorodibenzofuran]",Uterine Wet Weight,female rat uterus; [6],0.181 ± 0.007 % body wt
same,Uterine Wet Weight,female rat uterus; [7],0.127 ± 0.019 % body wt
same,"Progesterone Receptor Levels, Cytosolic",[1]; [6],1025 ± 151 fmol/mg protein
same,"Progesterone Receptor Levels, Nuclear",[1]; [6],952 ± 113 fmol/mg protein
same,"Progesterone Receptor Levels, Cytosolic",[1]; [7],503 ± 63 fmol/mg protein
same,"Progesterone Receptor Levels, Nuclear",[1]; [7],795 ± 92 fmol/mg protein
same,"Estrogen Receptor Levels, Cytosolic",estrogen receptor (ER); [6],119.0 ± 14.3 fmol/mg protein
same,"Estrogen Receptor Levels, Nuclear",estrogen receptor (ER); [6],51.1 ± 7.4 fmol/mg protein
same,"Estrogen Receptor Levels, Cytosolic",estrogen receptor (ER); [7],72.8 ± 8.3 fmol/mg protein
same,"Estrogen Receptor Levels, Nuclear",estrogen receptor (ER); [7],26.4 ± 5.1 fmol/mg protein
"Cc1cc2c(cc1Cl)oc1c(Cl)c(Cl)c(Cl)cc12 [8-Methyl-2,3,4,7-tetraCDF, 8-Methyl-2,3,4,7-tetrachlorodibenzofuran]",Uterine Wet Weight,female rat uterus; [4],0.245 ± 0.006 % body wt
same,Uterine Wet Weight,female rat uterus; [5],0.094 ± 0.006 % body wt
same,Uterine Wet Weight,female rat uterus; [10],0.179 ± 0.009 % body wt
same,Uterine Wet Weight,female rat uterus; [11],0.201 ± 0.008 % body wt
same,Uterine Wet Weight,female rat uterus; [12],0.181 ± 0.002 % body wt
same,Uterine Wet Weight,female rat uterus; [13],0.172 ± 0.005 % body wt
same,"Progesterone Receptor Levels, Cytosolic",[1]; [4],725 ± 51 fmol/mg protein
same,"Progesterone Receptor Levels, Nuclear",[1]; [4],360 ± 25 fmol/mg protein
same,"Progesterone Receptor Levels, Cytosolic",[1]; [5],616 ± 43 fmol/mg protein
same,"Progesterone Receptor Levels, Nuclear",[1]; [5],161 ± 13 fmol/mg protein
same,"ED40-60 for Inhibition, PRc",[1],10 µmol/kg
same,"ED40-60 for Inhibition, PRn",[1],10 µmol/kg
same,"Progesterone Receptor Levels, Cytosolic",[1]; [10],2167 ± 152 fmol/mg protein
same,"Progesterone Receptor Levels, Nuclear",[1]; [10],866 ± 52 fmol/mg protein
same,"Progesterone Receptor Levels, Cytosolic",[1]; [11],1670 ± 117 fmol/mg protein
same,"Progesterone Receptor Levels, Nuclear",[1]; [11],701 ± 35 fmol/mg protein
same,"Progesterone Receptor Levels, Cytosolic",[1]; [12],1405 ± 98 fmol/mg protein
same,"Progesterone Receptor Levels, Nuclear",[1]; [12],697 ± 56 fmol/mg protein
same,"Progesterone Receptor Levels, Cytosolic",[1]; [13],1098 ± 88 fmol/mg protein
same,"Progesterone Receptor Levels, Nuclear",[1]; [13],514 ± 41 fmol/mg protein
same,"Estrogen Receptor Levels, Cytosolic",estrogen receptor (ER); [4],107.2 ± 5.4 fmol/mg protein
same,"Estrogen Receptor Levels, Nuclear",estrogen receptor (ER); [4],43.7 ± 2.2 fmol/mg protein
same,"Estrogen Receptor Levels, Cytosolic",estrogen receptor (ER); [5],66.8 ± 3.3 fmol/mg protein
same,"Estrogen Receptor Levels, Nuclear",estrogen receptor (ER); [5],30.9 ± 1.6 fmol/mg protein
same,"ED40-60 for Inhibition, ERc",estrogen receptor (ER),10 µmol/kg
same,"ED40-60 for Inhibition, ERn",estrogen receptor (ER),25 µmol/kg
same,"Estrogen Receptor Levels, Cytosolic",estrogen receptor (ER); [10],183.4 ± 9.2 fmol/mg protein
same,"Estrogen Receptor Levels, Nuclear",estrogen receptor (ER); [10],83.2 ± 4.2 fmol/mg protein
same,"Estrogen Receptor Levels, Cytosolic",estrogen receptor (ER); [11],151.9 ± 9.1 fmol/mg protein
same,"Estrogen Receptor Levels, Nuclear",estrogen receptor (ER); [11],82.8 ± 5.0 fmol/mg protein
same,"Estrogen Receptor Levels, Cytosolic",estrogen receptor (ER); [12],137.4 ± 6.9 fmol/mg protein
same,"Estrogen Receptor Levels, Nuclear",estrogen receptor (ER); [12],69.0 ± 4.1 fmol/mg protein
same,"Estrogen Receptor Levels, Cytosolic",estrogen receptor (ER); [13],114.9 ± 5.8 fmol/mg protein
same,"Estrogen Receptor Levels, Nuclear",estrogen receptor (ER); [13],69.2 ± 4.2 fmol/mg protein
"Cc1cc2c(cc1Cl)oc1cc(Cl)c(Cl)cc12 [8-methyl-2,3,7-triCDF, 8-Methyl-2,3,7-Trichlorodibenzofuran]",Uterine Wet Weight,female rat uterus; [10],0.192 ± 0.013 % body wt
same,Uterine Wet Weight,female rat uterus; [11],0.211 ± 0.019 % body wt
same,Uterine Wet Weight,female rat uterus; [12],0.192 ± 0.004 % body wt
same,Uterine Wet Weight,female rat uterus; [13],0.224 ± 0.012 % body wt
same,"ED40-60 for Inhibition, PRc",[1],2 µmol/kg
same,"ED40-60 for Inhibition, PRn",[1],10 µmol/kg
same,"Progesterone Receptor Levels, Cytosolic",[1]; [10],1673 ± 117 fmol/mg protein
same,"Progesterone Receptor Levels, Nuclear",[1]; [10],835 ± 50 fmol/mg protein
same,"Progesterone Receptor Levels, Cytosolic",[1]; [11],1596 ± 112 fmol/mg protein
same,"Progesterone Receptor Levels, Nuclear",[1]; [11],685 ± 62 fmol/mg protein
same,"Progesterone Receptor Levels, Cytosolic",[1]; [12],1461 ± 102 fmol/mg protein
same,"Progesterone Receptor Levels, Nuclear",[1]; [12],631 ± 37 fmol/mg protein
same,"Progesterone Receptor Levels, Cytosolic",[1]; [13],856 ± 60 fmol/mg protein
same,"Progesterone Receptor Levels, Nuclear",[1]; [13],605 ± 66 fmol/mg protein
same,"ED40-60 for Inhibition, ERc",estrogen receptor (ER),2 µmol/kg
same,"ED40-60 for Inhibition, ERn",estrogen receptor (ER),10 µmol/kg
same,"Estrogen Receptor Levels, Cytosolic",estrogen receptor (ER); [10],131.8 ± 6.6 fmol/mg protein
same,"Estrogen Receptor Levels, Nuclear",estrogen receptor (ER); [10],90.2 ± 5.4 fmol/mg protein
same,"Estrogen Receptor Levels, Cytosolic",estrogen receptor (ER); [11],125.3 ± 6.3 fmol/mg protein
same,"Estrogen Receptor Levels, Nuclear",estrogen receptor (ER); [11],76.8 ± 3.8 fmol/mg protein
same,"Estrogen Receptor Levels, Cytosolic",estrogen receptor (ER); [12],117.5 ± 5.9 fmol/mg protein
same,"Estrogen Receptor Levels, Nuclear",estrogen receptor (ER); [12],72.8 ± 3.6 fmol/mg protein
same,"Estrogen Receptor Levels, Cytosolic",estrogen receptor (ER); [13],107.1 ± 5.4 fmol/mg protein
same,"Estrogen Receptor Levels, Nuclear",estrogen receptor (ER); [13],67.3 ± 4.0 fmol/mg protein
